Data as given in patent US9352013B2, “Uses of bremelanotide in therapy for female sexual dysfunction” (Palatin Technologies, Inc., priority 2012, dated 2016).
Entries after “also recorded” stand apart in the source; their conditions may differ. Where two headings read alike, the source gives them in different places.

Columns and labels:
female rats = conditions: cited from earlier work
[1] = Adverse events with single-dose SC administration (Trials-14, -06, -10); format: in vivo, human
Protocol: Subcutaneous dosing was tested in 5 Phase 1 trials (3 in females, 2 in males) and one Phase 2 trial (males). The most common adverse events associated with single-dose SC bremelanotide administration (Trials-14, -06, and -10) were somnolence (30%), flushing (15%), nausea (19%), and vomiting (10%).

[2] = test system: women diagnosed with sexual arousal disorder; conditions: single intranasal dose of 20 mg; cited from earlier work
[3] = Subcutaneous trial in males: vomiting; format: in vivo, human; conditions: males
Protocol: In a trial in males, 1 of 6 subjects at the 5-mg dose level, 1 of 6 subjects at the 7.5 mg dose level, and 3 of 6 subjects at the 10-mg dose level experienced vomiting that was mild or moderate in intensity and delayed 6 to 15 hours.

[4] = Example 1: adverse events and discontinuations; format: in vivo, human; conditions: for Adverse event leading to withdrawal: Flushing, subjects (%) / Adverse event leading to withdrawal: Hypertension, subjects (%) / Adverse event leading to withdrawal: Nausea, subjects (%) / Adverse event leading to withdrawal: Vomiting, subjects (%) / Adverse event: Any leading to withdrawal, subjects (%) / Adverse event: Any, subjects (%) / Adverse event: Flushing, subjects (%) / Adverse event: Headache, subjects (%) / Adverse event: Injection-site pain, subjects (%) / Adverse event: Injection-site pruritus, subjects (%) / Adverse event: Nausea, subjects (%) / Adverse event: Upper respiratory tract infection, subjects (%): double-blind treatment
Protocol: A multi-centered, placebo-controlled, randomized, parallel group trial with fixed dose levels and designed to identify appropriate doses of bremelanotide administered by subcutaneous injection in premenopausal females with FSAD and/or HSDD, under the conditions of home use, was conducted. Subjects received a single dose of placebo (subject-blinded) in-clinic followed by 4 weeks of subject-blinded placebo treatment at home (subjects self-administered treatment as needed). Subjects who continued to qualify for the trial then received 2 single in-clinic doses of randomized treatment (double-blind; approximately one week apart), followed by 12 weeks of double-blind treatment at home (subjects self-administered treatment as needed).
Bremelanotide was well-tolerated during the trial. The most common types of treatment-emergent adverse events reported more frequently in the bremelanotide arms were facial flushing, nausea, emesis and headache. The study dosed 395 patients. A total of 26 patients discontinued from the study based on preset blood pressure change criterion spread across all arms (N=26, Placebo: 6, bremelanotide arms—0.75 mg: 4, 1.25 mg: 9, 1.75 mg: 7). A total of 19 patients discontinued from the study based on adverse events spread across all arms (N=19, Placebo: 5, bremelanotide arms—0.75 mg: 2, 1.25 mg: 4, 1.75 mg: 8). The adverse events that most commonly lead to discontinuation (other than meeting the blood pressure criterion) were flushing, nausea and emesis. Based on a safety review by an independent Data Safety Monitoring Board, no significant safety issues or concerns were identified during the study. […] Adverse events during the double-blind treatment period are shown on Table 6 below.

[5] = test system: premenopausal and postmenopausal women with FSAD; assay: Phase 2 intranasal trials in women with FSAD: efficacy and adverse events; format: in vivo, human
Protocol: (§1) In the bremelanotide premenopausal arm, 42.5% of the subjects were discontinued due to hypertension, nausea, vomiting or myalgia. Subjects received a 10 mg intranasal dose of bremelanotide, with premenopausal subjects determined to have a mean plasma concentration of 88.5±51.9 ng/mL and a % CV of 58.6, and postmenopausal subjects determined to have a mean plasma concentration of 93.2±68.5 ng/mL and a % CV of 73.5. The minimum and maximum plasma concentration levels for all women at thirty minutes post dose range from 0.0 ng/mL to 207.0 ng/mL.
Results with premenopausal women in a placebo-controlled, randomized, double-blind, parallel group, at-home exploratory study to evaluate the efficacy and safety of intranasally administered bremelanotide in subjects with female sexual arousal disorder (FSAD) were compared against results in the study of Example 1. In the intranasal study, a total of 76 premenopausal subjects were randomized, with 40 subjects to receive bremelanotide and 36 to receive placebo. Twenty-two subjects treated with bremelanotide and 29 treated with placebo completed the study, with 16 subjects who received bremelanotide (40%) discontinuing from the study due to an adverse event. This compares to the study of Example 1, in which as shown by Table 6 only 8% of subjects on the 1.75 mg subcutaneous dose discontinuing due to an adverse event.

[6] = Phase 2 intranasal trials: plasma concentration after 10 mg intranasal dose; format: in vivo; conditions: female, human, inhaled or intranasal, premenopausal, 30 minutes post dosing
Protocol: as §1
In the intranasal study, premenopausal women self-administered a 10 mg intranasal dose.

[7] = test system: men diagnosed with erectile dysfunction; conditions: subcutaneous injection of either a 4 or 6 mg dose; cited from earlier work

## CCCC[C@H](NC(C)=O)C(=O)N[C@H]1CC(=O)NCCCC[C@@H](C(=O)O)NC(=O)[C@H](Cc2c[nH]c3ccccc23)NC(=O)[C@H](CCCNC(=N)N)NC(=O)[C@@H](Cc2ccccc2)NC(=O)[C@H](Cc2c[nH]cn2)NC1=O [bremelanotide, Ac-Nle-cyclo(-Asp-His-D-Phe-Arg-Trp-Lys)-OH]
Female rats
  Effect on appetitive sexual behavior: selective pharmacological effect on appetitive sexual behavior was observed
Female rats; subcutaneous injections
  Dopamine release in the medial preoptic area: increasing dopamine release
  Immediate-early gene product Fos in limbic and hypothalamic structures: inducing
[1]
  Adverse event: flushing: 15%
  Adverse event: nausea: 19%
  Adverse event: somnolence: 30%
  Adverse event: vomiting: 10%
[2]
  Vaginal pulse amplitude measures compared to placebo: without statistically relevant differences
[3]; 7.5 mg dose level
  Subjects who experienced vomiting: 1 of 6
[3]; 5-mg dose level
  Subjects who experienced vomiting: 1 of 6
[3]; 10-mg dose level
  Subjects who experienced vomiting: 3 of 6
[4]; 0.75 mg SC
  Patients discontinued based on adverse events: 2
  Patients discontinued on preset blood pressure change criterion: 4
[4]; 0.75 mg SC (N = 100)
  Adverse event leading to withdrawal: Flushing, subjects (%): 0
  Adverse event leading to withdrawal: Hypertension, subjects (%): 2 (2%)
  Adverse event leading to withdrawal: Nausea, subjects (%): 0
  Adverse event leading to withdrawal: Vomiting, subjects (%): 0
  Adverse event: Any leading to withdrawal, subjects (%): 2 (2%)
  Adverse event: Any, subjects (%): 64 (64%)
  Adverse event: Flushing, subjects (%): 17 (17%)
  Adverse event: Headache, subjects (%): 9 (9%)
  Adverse event: Injection-site pain, subjects (%): 6 (6%)
  Adverse event: Injection-site pruritus, subjects (%): 4 (4%)
  Adverse event: Nausea, subjects (%): 18 (18%)
  Adverse event: Upper respiratory tract infection, subjects (%): 8 (8%)
[4]; 1.25 mg SC
  Patients discontinued based on adverse events: 4
  Patients discontinued on preset blood pressure change criterion: 9
[4]; 1.25 mg SC (N = 99)
  Adverse event leading to withdrawal: Flushing, subjects (%): 1 (1%)
  Adverse event leading to withdrawal: Hypertension, subjects (%): 0
  Adverse event leading to withdrawal: Nausea, subjects (%): 0
  Adverse event leading to withdrawal: Vomiting, subjects (%): 1 (1%)
  Adverse event: Any leading to withdrawal, subjects (%): 4 (4%)
  Adverse event: Any, subjects (%): 61 (62%)
  Adverse event: Flushing, subjects (%): 14 (14%)
  Adverse event: Headache, subjects (%): 9 (9%)
  Adverse event: Injection-site pain, subjects (%): 6 (6%)
  Adverse event: Injection-site pruritus, subjects (%): 4 (4%)
  Adverse event: Nausea, subjects (%): 22 (22%)
  Adverse event: Upper respiratory tract infection, subjects (%): 5 (5%)
[4]; 1.75 mg SC
  Patients discontinued based on adverse events: 8
  Patients discontinued on preset blood pressure change criterion: 7
[4]; 1.75 mg SC (N = 98)
  Adverse event leading to withdrawal: Flushing, subjects (%): 1 (1%)
  Adverse event leading to withdrawal: Hypertension, subjects (%): 1 (1%)
  Adverse event leading to withdrawal: Nausea, subjects (%): 3 (3%)
  Adverse event leading to withdrawal: Vomiting, subjects (%): 3 (3%)
  Adverse event: Any leading to withdrawal, subjects (%): 8 (8%)
  Adverse event: Any, subjects (%): 67 (68%)
  Adverse event: Flushing, subjects (%): 17 (17%)
  Adverse event: Headache, subjects (%): 14 (14%)
  Adverse event: Injection-site pain, subjects (%): 7 (7%)
  Adverse event: Injection-site pruritus, subjects (%): 6 (6%)
  Adverse event: Nausea, subjects (%): 24 (24%)
  Adverse event: Upper respiratory tract infection, subjects (%): 4 (4%)
[4]; 0.75-1.75 mg SC
  Tolerability during the trial: generally well tolerated
[4]; Example 1 study
  Serious adverse events related to treatment: none were considered related; also recorded: no serious adverse events
[5]; 10 mg intranasal, postmenopausal, placebo 47.7%
  Subjects reporting at least one adverse event: 100%
[5]; 10 mg intranasal, premenopausal, 16 of 40 subjects
  Subjects discontinuing from the study due to an adverse event: 40%
[5]; intranasal, premenopausal and postmenopausal women with FSAD
  Sexual desire and arousal compared to placebo: increase sexual desire and arousal compared to placebo
[6]; read-out: Cmax / plasma concentration, mean
  Cmax at 30 min: 88.5 ± 51.9 ng/mL
[6]; read-out: Cmax, maximum
  Cmax at 30 min: 207 ng/mL
[6]; read-out: Cmax, median
  Cmax at 30 min: 81.1 ng/mL
[7]
  Erectile response compared to placebo: statistically significant erectile response
